Measurements as given in patent US20240245677A1, “SELECTED COMPOUNDS FOR TARGETED DEGRADATION OF BRD9” (C4 THERAPEUTICS, INC., priority 2021, published 2024).

System: HepG2 cells
Assay: HepG2 in vitro viability assay (CellTiter-Glo, 72 hours)
Assay type: cell-based, human
Settings: 72 hours
Description: This assay assessed the general cytotoxicity of Compound 1 using the human hepatocarcinoma cell line HepG2. HepG2 cells were treated with Compound 1 for 72 hours and cellular viability was measured following the addition of CellTiter-Glo® 2.0 reagent (Promega) according to manufacturer's instructions. Agents were solubilized in DMSO and tested in the HepG2 cell line at concentrations ranging from 0.3 nM to 10 μM.
HepG2 cells were obtained from ATCC (Catalog No. HB-8065, Manassas, VA, USA) and maintained in MEM medium (Catalog No. 11095080, ThermoFisher Scientific, Waltham, MA, USA) supplemented with 10% heat inactivated fetal bovine serum (FBS) (Catalog No. 16000-044, Gibco, Grand Island, NY, USA) at 37° C. in an atmosphere of 5% CO2 in air. The cells were routinely sub-cultured to maintain cell density between 3×10^5-1.5×10^6 cells/mL, not to exceed 20 passages. Cells were washed with PBS, trypsinized for 5 min at 37° C., and resuspended in growth media. An aliquot was diluted 2× with Trypan Blue solution 0.4% (Catalog No. 15250061, ThermoFisher Scientific, Waltham, MA, USA) and cell count was determined. Cell concentration was adjusted with growth media to 1.0×10^4 cells/mL.
Compound 1 was prepared by dissolving neat compound in DMSO (Catalog No. D8418, Sigma-Aldrich, Inc., St. Louis, MO, USA) to generate 10 mM stock solution and stored at −20° C. 10 mM DMSO stock solution of Compound 1 was serially diluted (half log) in DMSO to generate 10-point dose series ([…]) in acoustic ready 384-well low dead volume microplates (Catalog No. LP-0200, Beckman Coulter Life Sciences, Indianapolis, IN, USA). Using an Echo 550 Acoustic Liquid Handler Handler (Beckman Coulter Life Sciences, Indianapolis, IN, USA), 50 nL of serially diluted compound solutions were dispensed directly in quadruplicate to each 384-well black TC-treated microplate (Catalog No. 3571, Corning, Glendale, CA, USA). 50 nL DMSO was transferred to all control wells.
50 μL HepG2 cells suspended in growth media at 1.0×10^4 cells/mL (500 cells/well) were dispensed using a Multidrop Combi Reagent Dispenser (Catalog No. 5840300, ThermoFisher Scientific, Waltham, MA, USA) to each well of 384-well black TC-treated microplates containing quadruplicate concentration range of test compound and DMSO controls. Plates were incubated at 37° C., 5% CO2 for 72 hours. Final concentration of DMSO was 0.1% for all samples.
Additional cell plates (TO plates) were prepared by dispensing cells into a blank 384-well black TC-treated microplate to represent cytostatic controls and processed for viability detection immediately after cell dispensing.
HepG2 cell viability was determined based on quantification of ATP using CellTiter-Glo® 2.0 luminescent assay kit (Catalog No. G9243, Promega, Madison, WI, USA), which signals the presence of metabolically active cells. On Day 0 (Time 0) and Day 3 (72 hours) 25 μL CellTiter-Glo® reagent was added to each well of cell plates except the wells in column 24 and the luminescence was measured after 4 hours incubation at room temperature using an EnVision® Multilabel Reader (Catalog No. 2104-0010, Perkin Elmer Inc., Dumfries, VA, USA). Column 24 (cells without CellTiter-Glo® addition) was used as plate background or positive control (P).
Cytostatic control value (CT0) was computed from TO plate read using untreated cell signals (UT=0) and positive control signals (PT=0) as below.
Percent response of compound-treated samples at a time point T were calculated by normalizing the signal with P and DMSO treated negative (N) controls on the same microtiter plate and the CT0 control:
The Response % is thus 100% if the CellTiter-Glo® signal equals that of the DMSO treated controls (i.e., normal cell growth), 0% if it equals that of untreated cell at TO (i.e., cytostasis), and −100% if it equals the no CellTiter-Glo® reagent controls (i.e., complete cytotoxicity). […]

`COc1cc(-c2cn(C)c(=O)c(C)c2C)cc(OC)c1CN1CC[C@H](N2CCN(c3ccc(N[C@H]4CCC(=O)NC4=O)cc3F)CC2)C(F)(F)C1` [Compound 1, (S)-3-((4-(4-((S)-1-(2,6-dimethoxy-4-(1,4,5-trimethyl-6-oxo-1,6-dihydropyridin-3-yl)benzyl)-3,3-difluoropiperidin-4-yl)piperazin-1-yl)-3-fluorophenyl)amino)-piperidine-2,6-dione] was tested, and the inhibition at 10 µM (Homo sapiens, HepG2, read-out: growth inhibition of HepG2 cells relative to 0.1% DMSO controls, 10 μM) was 33.4 ± 9.9% and the “effect on viability / growth of HepG2 cells” value (concentrations up to 3.3 μM) was “No significant effect”.
